Read-outs that look alike come from different tables or passages of the source.
Target: T1, FLJ14797-derived protein (γ-tubulin ring complex protein) (Homo sapiens, UniProt Q9UGJ1)
T1 construct: histidine tag (N); FLAG tag (N); made in house; host or cells: cell-free protein synthesis system (PROTEIOS; TOYOBO) using wheat germ extracts
Test: Biacore S51 surface plasmon resonance analysis of interaction between compound and immobilized FLJ14797-derived protein
Format: binding
Method: Genes of interest in human full-length cDNA clones were subjected to BP reaction with a PCR cloning vector Gateway pDONR201 using Gateway system available from Invitrogen according to the kit's protocol to give an entry vector. pEU3-NII (TOYOBO) compatible with a cell-free protein synthesis system (PROTEIOS; TOYOBO) using wheat germ extracts was used as a source vector, from which a double-tag destination vector used as the destination vector of the Gateway system was prepared by introducing Gateway cassette with Gateway recombinant sequence into the pEU3-NII vector so that the Gateway system could be utilized, and further modifying the resulting vector by PCR so that peptides having histidine and FLAG tag sequences would be expressed in the N-terminal region of an expressed protein.
The prepared double-tag destination vector and entry vector were used to conduct […] using the Gateway system (Invitrogen) according to the protocol. The resulting product was transformed into Escherichia coli competent cells DH5α to select clones where the expression vector was introduced. Plasmids were prepared from the obtained clones using QIAfilter Midi kit (QIAGEN) according to the kit's protocol. The obtained plasmids were treated with phenol and chloroform according to the PROTEIOS (TOYOBO) protocol and subjected to the inactivation treatment of RNase to give purified expression plasmids.
Recombinant proteins were synthesized by the cell-free protein synthesis system (PROTEIOS; TOYOBO) using wheat germ extracts. mRNA was prepared according to the PROTEIOS protocol from the expression plasmids obtained by the method described in the paragraph 1. A 20-μg aliquot of the obtained mRNA was used to synthesize proteins in 2 wells of a 96-well micro titer plate according to the PROTEIOS protocol. The synthesized proteins were subjected to high-speed centrifugation treatment to remove precipitations. The obtained soluble fractions were purified using ANTI-FLAG M2 Affinity Gel (SIGMA) immobilizing thereon an anti-FLAG tag antibody according to the protocol to give purified proteins.
The surface of a CM5 sensor chip for S51 commercially available from Biacore was converted to NTA using IM EDC, 1.33 M NHS, and 16 mg/ml AB-NTA (pH 9.2) to make an NTA sensor chip for S51. The proteins expressed in the wheat germ system and purified with a FLAG tag were immobilized on this chip. The immobilization was performed by sequentially injecting 0.5 M NiCl2, 0.4 M EDC, […], a ligand (protein) solution, and 1 M ethanolamine (pH 8.5) into the passage system of Biacore S51. A running buffer used for the immobilization was PBS (pH 7.4). The ligand-immobilized sensor chip was used to conduct assay described below. A running buffer used was prepared by adding DMSO at the final concentration of 5% to HBS (10 mM HEPES and 150 mM NaCl, (pH 7.6)), 0.005% P20, and 100 uM mineral ion cocktail (Ca(OAc)2, Zn(OAc)2.2H2O, Cu(OAc)2.H2O, Co(OAc)2.4H2O, Mn(OAc)2.4H2O, Mg(OAc)2.4H2O, and FeCl3.6H2O). Compounds to be measured were prepared by making ½ serial dilutions (9 points) from 62.5 uM to 0.244 uM solutions. Solvents used for the compound solutions were prepared in the same composition as that of the running buffer. A solution containing only the solvents without the compound was prepared for zero-concentration measurement. […]

[1] = Biacore S51, FLJ14797-derived protein, same way as Example 1, Table 1, read-out: KD

T1 sequence (Q9UGJ1 whole entry, one chain of several): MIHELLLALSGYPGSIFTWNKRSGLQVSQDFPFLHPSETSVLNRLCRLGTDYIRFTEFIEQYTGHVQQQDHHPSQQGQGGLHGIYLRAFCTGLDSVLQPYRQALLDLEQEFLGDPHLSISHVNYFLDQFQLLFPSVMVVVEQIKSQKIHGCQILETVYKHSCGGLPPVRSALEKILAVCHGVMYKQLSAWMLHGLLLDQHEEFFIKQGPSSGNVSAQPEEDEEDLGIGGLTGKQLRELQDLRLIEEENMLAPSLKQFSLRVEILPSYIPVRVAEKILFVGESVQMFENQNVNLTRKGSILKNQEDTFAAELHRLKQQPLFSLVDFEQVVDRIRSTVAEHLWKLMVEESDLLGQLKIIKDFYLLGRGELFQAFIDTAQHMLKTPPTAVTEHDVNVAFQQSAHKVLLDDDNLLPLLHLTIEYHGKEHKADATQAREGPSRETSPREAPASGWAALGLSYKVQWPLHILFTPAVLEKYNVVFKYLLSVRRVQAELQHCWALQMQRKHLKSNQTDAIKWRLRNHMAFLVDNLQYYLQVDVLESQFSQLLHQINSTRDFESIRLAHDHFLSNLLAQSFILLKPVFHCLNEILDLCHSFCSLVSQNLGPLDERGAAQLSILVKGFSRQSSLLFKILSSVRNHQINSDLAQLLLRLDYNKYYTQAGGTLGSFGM

| Kd [1] | Kd (Biacore S51, FLJ14797-derived protein immobilized on NTA chip, compound 62.5 uM to 0.244 uM, Example 1, read-out: binding dissociation constant KD) | interaction with FLJ14797-derived protein (specificity of binding) (Biacore S51, binding dose-dependent and saturated at high doses) | SMILES |
| --- | --- | --- | --- |
| 13.8 µM |  |  | O=C1NC(=O)C(Cc2ccc(OCCOC3CCCCC3)cc2)S1 (centres unmarked) [Compound A-2] |
| 8.43 µM |  |  | CC1(OCCOc2ccc(CC3SC(=O)NC3=O)cc2)CCCCC1 (centres unmarked) [Compound A-1, 5-{4-[2-(1-methyl-cyclohexyloxy)-ethoxy]-benzyl}-thiazolidine-2,4-dione] |
|  | 9.04 µM | specific | CCc1ccc(CCOc2ccc(CC3SC(=O)NC3=O)cc2)nc1 (centres unmarked) [pioglitazone, reference compound] |
| 21.6 µM |  |  | O=C1NC(=O)C(Cc2ccc(OCCOC3CCCC3)cc2)S1 (centres unmarked) [Compound A-3] |

Reference: patent US20070093536A1, “Target protein of antidiabetic and novel antidiabetic insuful corresponding thereto” (priority 2003, published 2007)
